The nature of assay [1]: Knoop microhardness repair of acid-etched bovine enamel blocks after treatment and remineralization. The settings on record: 1% citric acid etch 10 min, 40 microliters for ten minutes at room temperature, Remineralization Solution overnight at 37° C. The procedure:
Bovine enamel blocks are obtained from sound bovine incisors without defects. The labial surface of the bovine teeth is cut to provide enamel specimens of about 3×3×2 mm in size. The enamel layer is about 1 mm thick and the dentin left in the specimen is about 1 mm thick.
Etched enamel samples are prepared by treatment with 1% aqueous citric acid (pH 3.6) for 10 minutes, followed by rinsing with deionized water. Three bovine enamel blocks are prepared, one for the test solution, one for a positive control solution, and one for a negative control solution.
Etched bovine enamel samples are treated with 40 microliters of the polyelectrolyte solution A, with sodium fluoride solution, or with water, for ten minutes at room temperature. […]
Knoop Hardness (KHN) is a measure of hardness of a material calculated by measuring the indentation produced by a diamond tip that is pressed onto the surface of a sample. Using a calibrated microscope, the area of the impression can be determined, and from the area of the indentation (D) in […], and the applied load (F) in kilograms force, the Knoop Hardness is calculated as: KHN=14.229(F/D^2). […]
KHN is determined using Knoop microhardness tester. […] A value for Percentage of Hardness Repair (% HR) is calculated according to the following formula: […]

Assay [2] is described as follows: Single-block enamel repair evaluation, solution samples (Keyence microscope step height, light microscopy, SEM). On the set-up: species or system bovine. The procedure:
The left half of the block (“sound”) is covered using an acid-resistant nail polish, which is then allowed to air dry. The right half of the block (“damaged” and “repaired”) is then treated with 1% citric acid (pH 3.6) for ten minutes to etch the surface. After the treatment, the surface of the block is rinsed with deionized water. The top right corner of the block (“damaged”) is then covered with the same acid-resistant nail polish and air dried. The test formulation is then applied to the bottom right corner of the block (“repaired”), for example, for a ten-minute treatment, followed by rinsing with deionized water. Following the treatment, the enamel blocks are immersed in a Remineralization Solution (0.2205 g/L CaCl2·2H2O, 0.1225 g/L KH2PO4, 9.6915 g/L KCl and 4.766 g/L HEPEs buffer, pH adjusted to 7 with NaOH) overnight at 37° C., and the process repeated for 2-4 days (the blocks immersed daily in fresh remineralization solution). Following this, the blocks are removed, rinsed with deionized water and air dried. The nail polish covers are then removed using acetone solvent, and the surface of the enamel blocks is visualized, for example, by light microscopy, confocal laser scanning microscopy, scanning probe microscopy, or scanning electron microscopy.
A Keyence microscope is used to capture the surface morphology and to measure the step height of the treated samples. A Phenom ProX Desktop scanning electron microscope is used to observe the repaired enamel crystals. Bovine enable blocks are treated with either water, the sodium fluoride solution, or the 10 mg/mL ePL+0.06 mg/mL malic acid solution (Solution A above).

Here are results for 1 molecule from patent publication US20240201173A1, “Enamel Repair Visualization and Quantification” (Colgate-Palmolive Company, priority 2022, published 2024).

For the molecule `[F-].[Na+]` [NaF Control, sodium fluoride], the “% HR (Percentage of Hardness Repair)” value in assay [1] is given as 41.0%; in assay [1] (listed as sodium fluoride) it was “did not reach half of original hardness levels”. In assay [2] (1% citric acid etch 10 min, ten-minute treatment, remineralization repeated 2-4 days), the “% Repair (Step height)” value amounted to 65.3%. Moreover, the “enamel surface gaps, scanning electron microscopy” value in assay [2] (gaps from acid etching) is reported as “some healing”. Further, the “surface elevation, 3-D Keyence photomicrographs (FIG. 3)” value in assay [2] (height vs sound enamel side) is “do not restore the enamel to the original height”. For the same molecule, the “surface morphology of repaired side, light microscopy (FIG. 2)” value in assay [2] (repaired vs damaged side of same block) is “a clear interface between “damaged” and “repaired” sides is observed”.
